In one data set the target is MC1-receptor (Mus musculus, UniProt Q01727). Kind of data set: Affinity for the MC1-receptor, binding assay with I125-NDP-αMSH as ligand. The following applies: read-out: Affinity for MC-receptors Ki MC1. As to the method: Test 1. Affinity for the MC1-receptor
The binding assay was carried out essentially as described by Lunec et al, Melanoma Res 1992; 2; 5-12, using I^125-NDP-αMSH as ligand.

Data set [1] concerns the target T1, MC3 (Homo sapiens, UniProt P41968). The data set is described as follows: Affinity for the MC3-receptors, binding assay with I125-NDP-αMSH as ligand. The following applies: read-out: Affinity for MC-receptors Ki MC3. As to the method:
(§1) Test 2. Affinity for the MC3-Receptors, the MC4-Receptors and the MC5-Receptors
(§2) The binding assays were carried out essentially as described by Szardenings et al, J Biol Chem 1997; 272; 27943-27948 and Schiöth et al, FEES Lett 1997; 410; 223-228 using I^125-NDP-αMSH as ligand.

The target of data set [2] is T2, MC4 (Homo sapiens, UniProt P32245). Kind of data set: Affinity for the MC4-receptors, binding assay with I125-NDP-αMSH as ligand. The following applies: read-out: Affinity for MC-receptors Ki MC4. As for the experimental part:
as §1, §2

Data set [3] deals with T3, MC5 (Homo sapiens, UniProt P33032). The data set is described as follows: Affinity for the MC5-receptors, binding assay with I125-NDP-αMSH as ligand. The following applies: read-out: Affinity for MC-receptors Ki MC5. As to the method:
as §1, §2

The next data set has as its target MC1 (Homo sapiens, UniProt Q01726). The data set is described as follows: Stimulation of cAMP, MC1. Type of data set: cell-based. As for the experimental part:
(§3) The stimulation of cAMP was carried out essentially as described by Schiöth et al, Br J Pharmacol 1998; 124; 75-82.

Data set [4] deals with T1, MC3. Kind of data set: Stimulation of cAMP, MC3. It counts as cell-based. As to the method: as §3
The target of data set [5] is T2, MC4. Kind of data set: Stimulation of cAMP, MC4. Type of data set: cell-based. As to the method:
as §3

Data set [6] has as its target T3, MC5. The data set is described as follows: Stimulation of cAMP, MC5. It counts as cell-based. As for the experimental part:
as §3

A further data set relates to melanocortin receptors. Kind of data set: Affinity to the melanocortin receptors. Type of data set: binding.

pKi: −log10 of the molar value.

Usually melting point stands for the temperature, or range, at which the solid turns liquid. One may read the pKi as the negative decadic logarithm of the Ki, by convention in mol/L.

T2 sequence (P32245 whole entry): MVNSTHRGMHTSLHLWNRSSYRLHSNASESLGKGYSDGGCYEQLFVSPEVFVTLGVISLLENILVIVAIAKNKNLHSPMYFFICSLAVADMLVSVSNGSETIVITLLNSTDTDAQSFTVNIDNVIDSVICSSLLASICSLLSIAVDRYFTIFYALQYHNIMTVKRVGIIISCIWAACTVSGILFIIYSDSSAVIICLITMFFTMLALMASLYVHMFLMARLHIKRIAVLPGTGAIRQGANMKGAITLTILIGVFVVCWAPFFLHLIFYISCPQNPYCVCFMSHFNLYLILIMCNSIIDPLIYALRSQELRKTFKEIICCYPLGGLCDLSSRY
T1 sequence (P41968 whole entry): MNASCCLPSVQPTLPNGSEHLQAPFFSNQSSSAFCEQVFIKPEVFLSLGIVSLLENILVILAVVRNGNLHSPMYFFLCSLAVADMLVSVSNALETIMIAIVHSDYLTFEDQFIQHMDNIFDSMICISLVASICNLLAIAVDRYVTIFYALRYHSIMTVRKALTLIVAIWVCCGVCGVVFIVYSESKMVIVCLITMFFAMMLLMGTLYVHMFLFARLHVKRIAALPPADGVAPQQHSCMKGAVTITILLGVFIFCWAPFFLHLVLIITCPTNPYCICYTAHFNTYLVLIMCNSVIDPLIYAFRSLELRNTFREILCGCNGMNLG
T3 sequence (P33032 whole entry): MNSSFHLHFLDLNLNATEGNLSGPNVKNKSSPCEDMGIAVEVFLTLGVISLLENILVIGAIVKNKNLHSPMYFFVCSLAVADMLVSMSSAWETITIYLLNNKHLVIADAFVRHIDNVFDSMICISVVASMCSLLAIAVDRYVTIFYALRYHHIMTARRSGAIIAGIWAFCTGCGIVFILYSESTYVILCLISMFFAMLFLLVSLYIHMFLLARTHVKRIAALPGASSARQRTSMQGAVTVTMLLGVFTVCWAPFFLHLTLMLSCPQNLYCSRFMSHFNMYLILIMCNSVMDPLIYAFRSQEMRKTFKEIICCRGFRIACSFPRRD
Sequence of MC1-receptor (Q01727 whole entry): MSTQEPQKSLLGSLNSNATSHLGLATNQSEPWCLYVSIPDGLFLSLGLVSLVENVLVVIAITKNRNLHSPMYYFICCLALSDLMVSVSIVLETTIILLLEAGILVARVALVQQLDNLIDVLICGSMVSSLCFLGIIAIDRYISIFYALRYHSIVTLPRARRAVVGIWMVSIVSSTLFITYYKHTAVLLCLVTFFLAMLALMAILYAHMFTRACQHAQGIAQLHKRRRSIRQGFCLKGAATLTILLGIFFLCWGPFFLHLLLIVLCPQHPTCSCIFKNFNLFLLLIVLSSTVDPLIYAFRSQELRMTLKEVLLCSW
Sequence of MC1 (Q01726 whole entry): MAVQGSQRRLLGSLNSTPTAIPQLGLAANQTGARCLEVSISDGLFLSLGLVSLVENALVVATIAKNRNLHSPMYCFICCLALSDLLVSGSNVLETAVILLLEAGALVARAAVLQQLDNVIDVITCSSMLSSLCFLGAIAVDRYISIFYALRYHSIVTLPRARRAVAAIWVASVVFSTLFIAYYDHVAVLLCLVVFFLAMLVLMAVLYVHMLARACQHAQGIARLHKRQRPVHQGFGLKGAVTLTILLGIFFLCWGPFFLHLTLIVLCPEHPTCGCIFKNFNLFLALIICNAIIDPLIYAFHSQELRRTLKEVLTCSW

Regarding `CC(=O)O.N=C(N)NN=Cc1ccc(Br)cc1F`, the melting point lay in the range of 187 to 188 °C.
For `CC(=O)O.COc1cc(OC)c(C=NNC(=N)N)c(OC)c1`, the melting point lay in the range of 66 to 68 °C.
`COc1ccc(C=NNC(=N)NO)cc1[N+](=O)[O-]` [1:76, N-(4-Methoxy-3-nitrobenzylideneamino)-N′-hydroxyguanidine]: the melting point was in the range of 219 to 221 °C.
Regarding `Cc1cc(O)c(C=NNC(=N)N)cc1[N+](=O)[O-].Cl`, the melting point is 229 to 230 °C.
In turn, `CC(=O)O.COc1cc([N+](=O)[O-])c([N+](=O)[O-])c(C=NNC(=N)N)c1OC` had a melting point of 165 to 171 °C.
Turning to `COc1ccc(C=NNC(=N)NO)cc1Br.Cc1ccc(S(=O)(=O)O)cc1` [1:3, N-(3-Bromo-4-methoxybenzylideneamino)-N′-hydroxyguanidine tosylate], the negative-log Ki (pKi) is 4.38 on MC1-receptor, 4.04 on MC3 [1], 4.21 at MC4 [2] and 4.33 on MC5 [3]. The “Influence on cAMP MC1c” value on MC1 was determined as 8.4. Besides, the “Influence on cAMP MC3c” value at MC3 [4] was found to be 16. The “Influence on cAMP MC4c” value on MC4 [5] came to 31.8. Further, on MC5 [6], the “Influence on cAMP MC5c” value was 4.7.
For `COc1cc([N+](=O)[O-])cc(C=NNC(=N)N)c1O.Cl`, the melting point lay in the range of 243 to 246 °C.
With `Cl.N=C(N)NN=Cc1c([N+](=O)[O-])ccc(Br)c1[N+](=O)[O-]`, the melting point fell in the range of 166.5 to 168 °C.
`COc1cc([N+](=O)[O-])cc(C=NNC(=N)N)c1OC.Cl`: the melting point lay within 237 to 238 °C.
On to `Cc1cc([N+](=O)[O-])c(C=NNC(=N)N)cc1Br.Cl`, for which the melting point was 246.5 to 248 °C.
The same measure, in the same setting: with `COc1cc([N+](=O)[O-])cc(C=NNC(=N)NO)c1OC.Cl` the figure was 196 to 197.5 °C; with `CC(=O)O.N=C(N)NN=Cc1cc([N+](=O)[O-])cc([N+](=O)[O-])c1.O.O` (hydrate or solvate), 251 to 254 °C (dec.); with `N=C(NO)NN=Cc1ccccc1S(=O)(=O)O` [1:134, N-(2-Sulphobenzylideneamino)-N′-hydroxyguanidine], 243.5 to 244 °C.
Take `Cl.N=C(N)NN=Cc1ccccc1S(=O)(=O)O`: the melting point was above 260 °C.
Same read-out and setting: with `Cl.N=C(N)NN=Cc1cc(Br)cc([N+](=O)[O-])c1O` the figure was above 250 °C; with `CC(=O)O.N=C(N)NN=Cc1c(F)cccc1F`, 138.5 to 141 °C; with `CC(=O)O.COc1c(Cl)cc(C=NNC(=N)N)cc1[N+](=O)[O-]`, 255 to 258 °C (dec.).
`COc1c(C=NNC(=N)N)cc(Br)cc1[N+](=O)[O-].Cl` yielded a melting point of 258 to 259 °C.
On the same count and under the same terms, with `CC(=O)O.COc1c(Cl)cc(C=NNC(=N)N)cc1Cl` the figure was 185 to 190 °C; with `Cl.N=C(N)NN=Cc1c(Cl)ccc([N+](=O)[O-])c1[N+](=O)[O-]`, 153 to 154.5 °C.
In the case of `N=C(N)N/N=C/c1c(Cl)cccc1Cl` [Guanabenz], the “affinity to the melanocortin receptors” value in the data set on melanocortin receptors is listed as “no affinity”.
Turning to `CC(=O)O.COc1ccc(C=NNC(=N)N)c(Cl)c1OC`, the melting point lay in the range of 198 to 200 °C.
Take `CC(=O)O.COc1cc(Cl)c([N+](=O)[O-])cc1C=NNC(=N)N`: the melting point lay in the range of 196 to 199 °C.
On to `Cl.N=C(N)NN=Cc1cccc(I)c1`, for which the melting point was 203 to 204 °C.
For the compound `CC(=O)O.N=C(N)NN=Cc1cc(F)cc(F)c1[N+](=O)[O-]`, the melting point lay in the range of 231 to 233 °C.
`CC(=O)O.Cc1ccc(C=NNC(=N)N)c([N+](=O)[O-])c1O` gave a melting point of 240 to 241 °C.
As to `CC(=O)O.N=C(N)NN=Cc1cc(Cl)cc([N+](=O)[O-])c1Br`, the melting point was in the range of 136.5 to 137 °C.
Still for that read-out and setting: with `CC(=O)O.N=C(N)NN=Cc1c(Cl)ccc(Cl)c1[N+](=O)[O-]` the figure was 219.5 to 221 °C.
`CC(=O)O.COc1cc([N+](=O)[O-])cc(C=NNC(=N)N)c1OC` came in with a melting point of 191 to 194 °C.
With `COc1ccc([N+](=O)[O-])c(C=NNC(=N)N)c1[N+](=O)[O-].Cl`, the melting point is 217 to 218 °C.
`COc1ccc(C=NNC(=N)N)c(OC)c1OC.Cl`: the melting point lay within 181 to 183 °C.
In turn, `CC(=O)O.N=C(N)NN=Cc1cc([N+](=O)[O-])ccc1F` gave a melting point of 192 to 195 °C.
`CC(=O)O.COc1ccc(C=NNC(=N)N)c(O)c1` registered a melting point of 161 to 164 °C.
For `CC(=O)O.N=C(N)NN=Cc1cc([N+](=O)[O-])c(Br)cc1F`, the melting point was 175 to 198 °C (dec.).
On to `CC(=O)O.COc1cc(O)c(C=NNC(=N)N)c(OC)c1`, for which the melting point lay in the range of 115 to 118 °C.
Turning to `CC(=O)O.COc1ccc(C=NNC(=N)N)cc1[N+](=O)[O-]`, the melting point lay within 144 to 147 °C.
As to `Cc1ccc(S(=O)(=O)O)cc1.N=C(NO)NN=Cc1cc(Cl)ccc1[N+](=O)[O-]` [1:4, N-(5-Chloro-2-nitrobenzylideneamino)-N′-hydroxyguanidine tosylate], the pKi on MC1-receptor is 4.38; on MC3 [1] it was 4.17; at MC4 [2], 4.21; on MC5 [3] it was 4.48. Also, on MC1, the “Influence on cAMP MC1c” value is reported as 6.4. In addition, at MC3 [4], the “Influence on cAMP MC3c” value worked out at 1. Besides, the “Influence on cAMP MC4c” value at MC4 [5] was 17.1. For the same compound, on MC5 [6], the “Influence on cAMP MC5c” value was found to be 8.7.
For the compound `CC(=O)O.N=C(N)NN=Cc1ccc(F)c([N+](=O)[O-])c1`, the melting point was 222 to 224 °C (dec.).
`CC(=O)O.N=C(N)NN=Cc1cccc(F)c1F`: the melting point was 149 to 151.5 °C.
On the same count and under the same terms, with `CC(=O)O.N=C(N)NN=Cc1cc(Cl)cc(Cl)c1[N+](=O)[O-]` the figure was 88 to 91 °C; with `CC(=O)O.COc1cc(OC)c([N+](=O)[O-])cc1C=NNC(=N)N`, 207 to 210 °C.
`COc1ccc(C=NNC(=N)N)cc1Br.Cl` gave a melting point of 261 to 262.5 °C.
Turning to `CC(=O)O.N=C(N)NN=Cc1ccc(Br)c([N+](=O)[O-])c1`, the melting point was in the range of 152 to 153 °C.
Same read-out and setting: with `CC(=O)O.N=C(N)NN=Cc1ccc([N+](=O)[O-])cc1[N+](=O)[O-]` the figure was 224 to 226 °C.
As to `CC(=O)O.N=C(N)NN=Cc1ccc(F)c(Br)c1`, the melting point fell in the range of 172 to 173.5 °C.
On the same count and under the same terms, with `CC(=O)O.COc1cc(C=NNC(=N)N)cc(OC)c1OC` the figure was 223 to 225 °C; with `CC(=O)O.COc1c(C)cc(C=NNC(=N)N)cc1Br`, 163 to 166 °C; with `CC(=O)O.N=C(N)NN=Cc1ccc(F)c(F)c1`, 176 to 178 °C.
For the compound `CC(=O)O.N=C(N)NN=Cc1cc([N+](=O)[O-])ccc1Cl`, the melting point was 222 to 224 °C (dec.).

The record behind these values is patent US8410174B2, “Method for treating arthritis” (AnaMar AB, priority 2000, dated 2013).
